According to EP4818157A1, “N-SUBSTITUTED CYCLIC AMIDE COMPOUND” (Kissei Pharmaceutical Co., Ltd., priority 2023, dated 2025):

What follows are compounds tested against T1, human TSHR (Homo sapiens, UniProt P16473) (assay: Measurement of antagonist activity using TSH-induced cAMP production in human TSHR-stably expressing CHO cells). Conditions: human TSH final concentration 50 ng/mL.
T1 construct: expressed in transfected cells
T1 sequence (P16473 21-764): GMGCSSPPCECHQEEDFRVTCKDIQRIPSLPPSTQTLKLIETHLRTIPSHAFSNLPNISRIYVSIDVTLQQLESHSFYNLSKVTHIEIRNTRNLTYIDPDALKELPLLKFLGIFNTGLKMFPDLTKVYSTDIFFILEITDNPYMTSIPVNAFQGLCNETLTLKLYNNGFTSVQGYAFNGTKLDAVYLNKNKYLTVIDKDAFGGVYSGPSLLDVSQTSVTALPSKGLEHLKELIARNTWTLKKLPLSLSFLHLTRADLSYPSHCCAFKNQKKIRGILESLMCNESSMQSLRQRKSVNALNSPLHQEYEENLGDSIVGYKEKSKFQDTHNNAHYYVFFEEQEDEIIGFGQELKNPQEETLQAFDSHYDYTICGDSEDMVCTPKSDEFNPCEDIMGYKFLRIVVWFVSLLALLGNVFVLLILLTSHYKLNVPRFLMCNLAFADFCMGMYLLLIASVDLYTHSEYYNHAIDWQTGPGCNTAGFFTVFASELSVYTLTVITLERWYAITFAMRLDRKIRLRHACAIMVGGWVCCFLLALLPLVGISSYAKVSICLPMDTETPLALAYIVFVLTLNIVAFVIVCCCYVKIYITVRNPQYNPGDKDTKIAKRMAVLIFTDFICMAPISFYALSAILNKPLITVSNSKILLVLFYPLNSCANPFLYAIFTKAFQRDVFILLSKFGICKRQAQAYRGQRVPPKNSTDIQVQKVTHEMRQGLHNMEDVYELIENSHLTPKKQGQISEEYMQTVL
Assay type: cell-based
Method: Measurement of Antagonist Activity Using TSH-induced cAMP Production in Human TSHR-stably Expressing CHO Cells as an Indicator
A gene sequence of human TSHR (reference number NM_000369.2) was inserted into a multiple cloning site of pcDNA3.1(+). The prepared plasmid vector was introduced into CHO cells by a lipofection method to establish human TSHR stably expressing CHO cells. The obtained cells were seeded in a poly-D-lysine-coated 96-well plate at 5 x 10^4 cells/well, and cultured for 1 day in F12 medium containing 10% FBS, 400 µg/mL G418, 50 U/mL penicillin, and 50 µg/mL streptomycin under conditions of 37°C and 5% CO2. After removing a medium, the cells were washed twice with 100 µL per well of an assay buffer (Hanks' Balanced Salt Solution containing 20 mM HEPES and 1 mM IBMX). 30 µL of an assay buffer containing a test compound was added to a well, and the mixture was incubated at room temperature for 15 minutes. Next, 30 µL of an assay buffer containing human TSH (R&D Systems, Inc., final concentration 50 ng/mL) was added, and the mixture was incubated at 37°C for 1 hour. The supernatant was removed, and Lysis and Detection Buffer 2 (Cisbio) was added to prepare a cell lysate by incubating at room temperature for 1 hour. According to the instructions for use of a cAMP Gs HiRange kit (Cisbio), a cell lysate was reacted with d2-labeled cAMP and an anti-cAMP Europium Cryptate labeled antibody (Cisbio) in a 384-well white microplate. Next, a fluorescence intensity ratio (measurement wavelengths 665 nm/620 nm) was measured using a multiplate reader (PHERAstar FSX, BMG LABTECH Japan). A fluorescence intensity ratio of each sample was converted into a cAMP content using a standard curve. A cAMP content was converted into a percentage of a control value, and a cAMP production rate was calculated. Using Prism (Graph Pad Software Inc.), a cAMP production rate was plotted against a test compound concentration, and an IC50 value was calculated. The IC50 of each test compound is shown in the above tables. In the tables, IC50 < 3.0 µM was denoted as A, and 3.0 µM ≤ IC50 < 30 µM was denoted as B. The case where activity was observed but an IC50 value could not be calculated was denoted as C.
For NC(=O)N[C@@H]1Cc2c(F)cc(F)cc2N(Cc2cc(C(F)F)ccc2F)C1=O [Example C-17, (R)-1-(1-(5-(difluoromethyl)-2-fluorobenzyl)-5,7-difluoro-2-oxo-1,2,3,4-tetrahydroquinolin-3-yl)urea], the IC50 was under 3 µM.
Compound C[C@@H]1CC[C@@H](NC(N)=O)C(=O)N1Cc1cc(Br)ccc1F (relative stereo) [Example A-1, 1-((3R^*,6R^*)-1-(5-bromo-2-fluorobenzyl)-6-methyl-2-oxopiperidin-3-yl)urea] has an IC50 of 3 to 30 µM.
NC(=O)N[C@@H]1Cc2ccc(C(F)F)cc2N(Cc2cc(S(F)(F)(F)(F)F)ccc2F)C1=O [Example C-19, (R)-1-(7-(difluoromethyl)-1-(2-fluoro-5-(pentafluorosulfanyl)benzyl)-2-oxo-1,2,3,4-tetrahydroquinolin-3-yl)urea] was tested, and the IC50 was under 3 µM.
For NC(=O)Nc1cc(CCC(=O)O)cn(Cc2cc(C(F)(F)F)ccc2F)c1=O [Example B-2, 3-(1-(2-fluoro-5-(trifluoromethyl)benzyl)-6-oxo-5-ureido-1,6-dihydropyridin-3-yl)propanoic acid], the IC50 was over 30 µM.
NC(=O)N[C@@H]1Cc2ccc(Cl)cc2N(Cc2cc(C(F)F)ccc2F)C1=O [Example C-12, (R)-1-(7-chloro-1-(5-(difluoromethyl)-2-fluorobenzyl)-2-oxo-1,2,3,4-tetrahydroquinolin-3-yl)urea] was tested, and the IC50 was under 3 µM.
O=C(N[C@@H]1CC[C@@H](C(F)F)N(Cc2cc(C(F)(F)F)ccc2F)C1=O)C1CC1 [Example A-28, N-((3R,6S)-6-(difluoromethyl)-1-(2-fluoro-5-(trifluoromethyl)benzyl)-2-oxopiperidin-3-yl)cyclopropanecarboxamide] was tested, and the IC50 was under 3 µM.
Compound NC(=O)N[C@@H]1Cc2ccc(C(N)=O)cc2N(Cc2cc(C(F)(F)F)ccc2F)C1=O [Example C-30, (R)-1-(2-fluoro-5-(trifluoromethyl)benzyl)-2-oxo-3-ureido-1,2,3,4-tetrahydroquinolin-7-carboxamide] has an IC50 of 3 to 30 µM.
Compound CC(=O)N[C@@H]1CC[C@@H](C(F)F)N(Cc2cc(C(F)(F)F)ccc2F)C1=O [Example A-27, N-((3R,6S)-6-(difluoromethyl)-1-(2-fluoro-5-(trifluoromethyl)benzyl)-2-oxopiperidin-3-yl)acetamide] has an IC50 of 3 to 30 µM.
NC(=O)CC1Oc2ccccc2N(Cc2cc(C(F)(F)F)ccc2F)C1=O (stereo not shown) [Example F-7, 2-(4-(2-fluoro-5-(trifluoromethyl)benzyl)-3-oxo-3,4-dihydro-2H-benzo[b][1,4]oxazin-2-yl)acetamide] showed an IC50 of over 30 µM.
In the case of N#Cc1ccc(NC(N)=O)c(=O)n1Cc1cc(C(F)(F)F)ccc1F [Example B-7, 1-(6-cyano-1-(2-fluoro-5-(trifluoromethyl)benzyl)-2-oxo-1,2-dihydropyridin-3-yl)urea], the IC50 is reported as under 3 µM.
For NC(=O)N[C@@H]1Cc2ccc(C(=O)O)cc2N(Cc2cc(C(F)(F)F)ccc2F)C1=O [Example C-29, (R)-1-(2-fluoro-5-(trifluoromethyl)benzyl)-2-oxo-3-ureido-1,2,3,4-tetrahydroquinolin-7-carboxylic acid], the IC50 was over 30 µM.
In the case of NC(=O)N[C@@H]1Cc2ccccc2N(CC2CCCCC2)C1=O [Example C-27, (R)-1-(1-(cyclohexylmethyl)-2-oxo-1,2,3,4-tetrahydroquinolin-3-yl)urea], the IC50 is reported as over 30 µM.
C[C@@H]1CC[C@@H](NC(N)=O)C(=O)N1Cc1cc(-c2ccccc2)ccc1F (relative stereo) [Example A-4, 1-((3R^*,6R^*)-1-((4-fluoro-[1,1'-biphenyl]-3-yl)methyl)-6-methyl-2-oxopiperidin-3-yl)urea] was tested, and the IC50 was 3 to 30 µM.
Compound C[C@H]1CC[C@@H](NC(N)=O)C(=O)N1CCc1cccc(C(F)(F)F)c1 (relative stereo) [Example A-23, 1-((3R^*,6S^*)-6-methyl-2-oxo-1-(3-(trifluoromethyl)phenethyl)piperidin-3-yl)urea] has an IC50 of 3 to 30 µM.
In the case of CC(=O)NC[C@@H]1CC[C@@H](NC(N)=O)C(=O)N1Cc1cc(C(F)(F)F)ccc1F [Example D-8, N-(((2S,5R)-1-(2-fluoro-5-(trifluoromethyl)benzyl)-6-oxo-5-ureidopiperidin-2-yl)methyl)acetamide], the IC50 is reported as over 30 µM.
NC(=O)Nc1ccc(CO)n(Cc2cc(C(F)(F)F)cc(Cl)c2F)c1=O [Example E-1, 1-(1-(3-chloro-2-fluoro-5-(trifluoromethyl)benzyl)-6-(hydroxymethyl)-2-oxo-1,2-dihydropyridin-3-yl)urea] gave an IC50 of under 3 µM.
In the case of C[C@@H]1CC[C@@H](NC(N)=O)C(=O)N1Cc1cc(C#Cc2cccnc2)ccc1F (relative stereo) [Example A-9, 1-((3R^*,6R^*)-1-(2-fluoro-5-(pyridin-3-ylethynyl)benzyl)-6-methyl-2-oxopiperidin-3-yl)urea], the IC50 is reported as under 3 µM.
For C[C@@H]1CC[C@@H](NC(N)=O)C(=O)N1Cc1cc(C(F)(F)F)ccc1F [Example A-13, 1-((3R,6R)-1-(2-fluoro-5-(trifluoromethyl)benzyl)-6-methyl-2-oxopiperidin-3-yl)urea], the IC50 was under 3 µM.
Cc1cccc(CN2C(=O)[C@H](NC(N)=O)Cc3ccccc32)c1 [Example C-1, (R)-1-(1-(3-methylbenzyl)-2-oxo-1,2,3,4-tetrahydroquinolin-3-yl)urea] was tested, and the IC50 was 3 to 30 µM.
For CC(c1cc(C(F)(F)F)ccc1F)N1C(=O)[C@H](NC(N)=O)Cc2ccc(F)cc21 (stereo partly drawn) [Example C-24, 1-((3R)-7-fluoro-1-(1-(2-fluoro-5-(trifluoromethyl)phenyl)ethyl)-2-oxo-1,2,3,4-tetrahydroquinolin-3-yl)urea], the IC50 was 3 to 30 µM.
NC(=O)N[C@@H]1Cc2ccccc2N(Cc2cc(C(F)F)ccc2F)C1=O [Example C-4, (R)-1-(1-(5-(difluoromethyl)-2-fluorobenzyl)-2-oxo-1,2,3,4-tetrahydroquinolin-3-yl)urea] showed an IC50 of under 3 µM.
C=CCc1ccc(F)c(CN2C(=O)[C@H](NC(N)=O)CC[C@H]2C(F)(F)F)c1 [Example D-1, 1-((3R,6S)-1-(5-allyl-2-fluorobenzyl)-2-oxo-6-(trifluoromethyl)piperidin-3-yl)urea] was tested, and the IC50 was under 3 µM.
NC(=O)N[C@@H]1Cc2ccc(C(F)F)cc2N(Cc2cc(C(O)(C(F)(F)F)C(F)(F)F)ccc2F)C1=O [Example C-20, (R)-1-(7-(difluoromethyl)-1-(2-fluoro-5-(1,1,1,3,3,3-hexafluoro-2-hydroxypropan-2-yl)benzyl)-2-oxo-1,2,3,4-tetrahydroquinolin-3-yl)urea] showed an IC50 of under 3 µM.
With CC(C)(C)NC(=O)Nc1ccc2c(c1)nc(NC(N)=O)c(=O)n2Cc1cc(C(F)(F)F)ccc1F [Example F-9, 1-(tert-butyl)-3-(1-(2-fluoro-5-(trifluoromethyl)benzyl)-2-oxo-3-ureido-1,2-dihydroquinoxalin-6-yl)urea] the IC50 was under 3 µM.
NC(=O)N[C@@H]1Cc2ccccc2N(CCCc2ccccc2)C1=O [Example C-26, (R)-1-(2-oxo-1-(3-phenylpropyl)-1,2,3,4-tetrahydroquinolin-3-yl)urea] was tested, and the IC50 was over 30 µM.
C[C@@H]1CC[C@@H](NC(N)=O)C(=O)N1Cc1cc(C#Cc2ccncc2)ccc1F (relative stereo) [Example A-8, 1-((3R^*,6R^*)-1-(2-fluoro-5-(pyridin-4-ylethynyl)benzyl)-6-methyl-2-oxopiperidin-3-yl)urea] gave an IC50 of under 3 µM.
NC(=O)N[C@@H]1CC[C@@H](C(F)(F)F)N(Cc2cc(C(F)F)ccc2F)C1=O [Example A-15, 1-((3R,6S)-1-(5-(difluoromethyl)-2-fluorobenzyl)-2-oxo-6-(trifluoromethyl)piperidin-3-yl)urea] was tested, and the IC50 was under 3 µM.
For NC(=O)N[C@@H]1Cc2ccc(C(F)(F)F)cc2N(Cc2cc(C(F)F)ccc2F)C1=O [Example C-15, (R)-1-(1-(5-(difluoromethyl)-2-fluorobenzyl)-2-oxo-7-(trifluoromethyl)-1,2,3,4-tetrahydroquinolin-3-yl)urea], the IC50 was under 3 µM.
In the case of C[C@@H]1CC[C@@H](NC(N)=O)C(=O)N1Cc1cc(OCc2ccccc2)ccc1F (relative stereo) [Example A-11, 1-((3R^*,6R^*)-1-(5-(benzyloxy)-2-fluorobenzyl)-6-methyl-2-oxopiperidin-3-yl)urea], the IC50 is reported as under 3 µM.
CN(C)Cc1cccc2c1N(Cc1cc(C(F)(F)F)ccc1F)C(=O)[C@H](NC(N)=O)C2 [Example F-3, (R)-1-(8-((dimethylamino)methyl)-1-(2-fluoro-5-(trifluoromethyl)benzyl)-2-oxo-1,2,3,4-tetrahydroquinolin-3-yl)urea] showed an IC50 of 3 to 30 µM.
NC(=O)N[C@@H]1Cc2ccsc2N(Cc2cc(C(F)(F)F)ccc2F)C1=O [Example F-4, (R)-1-(7-(2-fluoro-5-(trifluoromethyl)benzyl)-6-oxo-4,5,6,7-tetrahydrothieno[2,3-b]pyridin-5-yl)urea] gave an IC50 of under 3 µM.
